Assay results published in ChEMBL document CHEMBL1152560, “Substituted 2-arylbenzothiazoles as kinase inhibitors: hit-to-lead optimization” (Bioorg Med Chem, 2009).

How the values were obtained:
[1] = target: Ephrin type-A receptor 4 (Homo sapiens) (UniProt P54764); test: Residual activity of EPHA4 at 1 uM by microplate scintillation counting
[2] = target: T1, G protein-coupled receptor kinase 3 (Homo sapiens) (UniProt P35626); test: Residual activity of GRK3 at 1 uM by microplate scintillation counting
T1 sequence (whole entry): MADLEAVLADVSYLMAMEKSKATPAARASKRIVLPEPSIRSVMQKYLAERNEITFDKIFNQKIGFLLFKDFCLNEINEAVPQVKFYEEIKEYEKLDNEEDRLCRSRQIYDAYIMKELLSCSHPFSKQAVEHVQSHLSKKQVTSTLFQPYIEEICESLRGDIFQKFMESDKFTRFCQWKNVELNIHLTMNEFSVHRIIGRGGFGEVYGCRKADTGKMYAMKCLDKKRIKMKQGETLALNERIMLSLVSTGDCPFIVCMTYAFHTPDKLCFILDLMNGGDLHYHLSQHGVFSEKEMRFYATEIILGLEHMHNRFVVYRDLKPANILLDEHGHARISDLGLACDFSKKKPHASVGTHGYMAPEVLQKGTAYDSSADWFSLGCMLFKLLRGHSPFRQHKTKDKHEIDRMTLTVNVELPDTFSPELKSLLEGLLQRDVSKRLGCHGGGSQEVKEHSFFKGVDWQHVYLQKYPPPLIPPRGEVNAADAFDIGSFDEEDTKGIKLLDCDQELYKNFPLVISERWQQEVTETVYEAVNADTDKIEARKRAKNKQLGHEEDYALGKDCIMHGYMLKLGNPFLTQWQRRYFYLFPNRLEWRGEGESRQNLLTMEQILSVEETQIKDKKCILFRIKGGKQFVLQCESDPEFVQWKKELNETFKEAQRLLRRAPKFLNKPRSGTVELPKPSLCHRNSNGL

[3] = target: Mitogen-activated protein kinase kinase kinase kinase 4 (Homo sapiens) (UniProt O95819); test: Residual activity of MAP4K4 at 0.1 uM by microplate scintillation counting
Mitogen-activated protein kinase kinase kinase kinase 4 (Homo sapiens), sequence (O95819 2-1239 limits assumed): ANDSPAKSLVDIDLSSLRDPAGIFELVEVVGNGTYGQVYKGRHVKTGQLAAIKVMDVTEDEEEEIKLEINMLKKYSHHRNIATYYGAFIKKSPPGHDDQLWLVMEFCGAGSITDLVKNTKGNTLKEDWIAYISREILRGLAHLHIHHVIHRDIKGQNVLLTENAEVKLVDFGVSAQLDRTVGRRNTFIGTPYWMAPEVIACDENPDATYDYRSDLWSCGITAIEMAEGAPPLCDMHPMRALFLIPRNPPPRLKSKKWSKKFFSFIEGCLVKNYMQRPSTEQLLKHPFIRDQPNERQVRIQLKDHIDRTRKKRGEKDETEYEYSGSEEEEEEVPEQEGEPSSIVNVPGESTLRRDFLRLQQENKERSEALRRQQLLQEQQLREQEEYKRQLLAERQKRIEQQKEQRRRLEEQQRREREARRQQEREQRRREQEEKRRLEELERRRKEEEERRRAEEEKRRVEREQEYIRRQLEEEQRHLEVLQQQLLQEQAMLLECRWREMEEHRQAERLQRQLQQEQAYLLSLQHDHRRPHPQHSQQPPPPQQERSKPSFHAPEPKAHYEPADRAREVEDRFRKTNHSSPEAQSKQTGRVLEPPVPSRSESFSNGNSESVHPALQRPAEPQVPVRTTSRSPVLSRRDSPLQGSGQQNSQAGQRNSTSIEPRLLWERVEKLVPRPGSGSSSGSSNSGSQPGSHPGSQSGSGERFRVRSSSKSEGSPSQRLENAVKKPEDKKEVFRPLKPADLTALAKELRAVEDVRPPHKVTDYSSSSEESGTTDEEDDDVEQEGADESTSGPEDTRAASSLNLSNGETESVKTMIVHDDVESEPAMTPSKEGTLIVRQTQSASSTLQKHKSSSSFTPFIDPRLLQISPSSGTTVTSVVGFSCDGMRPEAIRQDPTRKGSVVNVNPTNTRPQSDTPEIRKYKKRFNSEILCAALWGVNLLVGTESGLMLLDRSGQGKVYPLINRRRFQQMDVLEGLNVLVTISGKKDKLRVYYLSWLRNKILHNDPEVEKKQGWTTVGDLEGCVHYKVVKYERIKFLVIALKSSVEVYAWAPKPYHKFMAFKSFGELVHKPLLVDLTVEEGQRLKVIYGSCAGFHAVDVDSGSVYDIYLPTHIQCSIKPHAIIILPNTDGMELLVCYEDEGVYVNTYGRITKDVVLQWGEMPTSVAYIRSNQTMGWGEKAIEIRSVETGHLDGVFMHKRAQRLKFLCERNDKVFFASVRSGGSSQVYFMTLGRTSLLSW

[4] = target: T2, Tyrosine-protein kinase ITK/TSK (Homo sapiens) (UniProt Q08881); test: Residual activity of ITK at 1 uM by microplate scintillation counting
T2 sequence (whole entry): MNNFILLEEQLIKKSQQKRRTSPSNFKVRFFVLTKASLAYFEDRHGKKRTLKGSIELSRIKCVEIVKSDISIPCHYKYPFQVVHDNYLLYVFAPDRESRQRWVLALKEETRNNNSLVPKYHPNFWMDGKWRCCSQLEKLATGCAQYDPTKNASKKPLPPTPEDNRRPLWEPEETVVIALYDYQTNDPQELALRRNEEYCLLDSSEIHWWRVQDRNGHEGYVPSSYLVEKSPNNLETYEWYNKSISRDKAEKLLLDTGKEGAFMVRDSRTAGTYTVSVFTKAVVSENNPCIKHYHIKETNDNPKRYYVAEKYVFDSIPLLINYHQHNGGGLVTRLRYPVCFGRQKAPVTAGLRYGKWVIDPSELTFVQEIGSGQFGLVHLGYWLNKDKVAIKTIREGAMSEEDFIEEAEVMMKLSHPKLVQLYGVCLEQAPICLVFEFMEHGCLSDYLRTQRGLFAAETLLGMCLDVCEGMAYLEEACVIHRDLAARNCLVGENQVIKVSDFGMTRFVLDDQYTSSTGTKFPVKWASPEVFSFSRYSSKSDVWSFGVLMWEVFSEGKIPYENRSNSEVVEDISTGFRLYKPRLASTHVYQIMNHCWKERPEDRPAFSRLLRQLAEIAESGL

[5] = target: Myosin light chain kinase 2, skeletal/cardiac muscle (Homo sapiens) (UniProt Q9H1R3); test: Residual activity of MYLK2 at 1 uM by microplate scintillation counting
Myosin light chain kinase 2, skeletal/cardiac muscle (Homo sapiens), sequence (Q9H1R3 whole entry): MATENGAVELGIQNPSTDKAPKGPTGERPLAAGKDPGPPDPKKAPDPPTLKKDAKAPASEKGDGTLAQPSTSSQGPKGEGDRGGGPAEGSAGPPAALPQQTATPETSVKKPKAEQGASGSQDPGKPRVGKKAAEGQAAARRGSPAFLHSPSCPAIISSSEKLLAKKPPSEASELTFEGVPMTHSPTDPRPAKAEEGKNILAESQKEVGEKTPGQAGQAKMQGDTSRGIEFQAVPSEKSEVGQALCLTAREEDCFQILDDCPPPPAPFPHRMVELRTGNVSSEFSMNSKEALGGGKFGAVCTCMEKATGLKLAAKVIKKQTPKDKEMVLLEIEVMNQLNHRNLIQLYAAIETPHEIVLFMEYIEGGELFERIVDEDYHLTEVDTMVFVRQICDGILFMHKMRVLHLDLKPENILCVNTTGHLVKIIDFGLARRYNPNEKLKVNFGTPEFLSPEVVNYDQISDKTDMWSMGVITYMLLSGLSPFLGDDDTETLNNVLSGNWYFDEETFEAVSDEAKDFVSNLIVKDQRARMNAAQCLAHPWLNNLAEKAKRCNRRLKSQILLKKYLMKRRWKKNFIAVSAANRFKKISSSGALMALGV

[6] = target: T3, NUAK family SNF1-like kinase 2 (Homo sapiens) (UniProt Q9H093); test: Residual activity of SNARK at 1 uM by microplate scintillation counting
T3 sequence (whole entry): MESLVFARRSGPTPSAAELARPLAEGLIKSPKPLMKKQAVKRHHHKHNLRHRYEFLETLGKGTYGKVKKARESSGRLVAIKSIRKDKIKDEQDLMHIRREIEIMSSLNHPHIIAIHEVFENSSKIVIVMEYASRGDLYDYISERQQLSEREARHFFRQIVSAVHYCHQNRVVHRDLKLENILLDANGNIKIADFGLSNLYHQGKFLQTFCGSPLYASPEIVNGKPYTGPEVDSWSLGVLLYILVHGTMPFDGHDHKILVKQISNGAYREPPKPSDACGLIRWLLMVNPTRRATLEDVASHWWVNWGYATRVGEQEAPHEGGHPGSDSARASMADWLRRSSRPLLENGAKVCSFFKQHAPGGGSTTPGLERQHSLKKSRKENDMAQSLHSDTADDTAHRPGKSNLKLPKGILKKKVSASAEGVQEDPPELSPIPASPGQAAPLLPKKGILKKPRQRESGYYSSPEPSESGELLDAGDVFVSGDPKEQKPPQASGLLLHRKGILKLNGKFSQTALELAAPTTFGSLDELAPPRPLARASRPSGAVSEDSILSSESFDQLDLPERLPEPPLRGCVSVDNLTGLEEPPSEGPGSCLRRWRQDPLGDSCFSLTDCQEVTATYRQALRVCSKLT

[7] = target: Tyrosine-protein kinase CSK (Homo sapiens) (UniProt P41240); test: Residual activity of CSK at 10 uM by microplate scintillation counting
Tyrosine-protein kinase CSK (Homo sapiens), sequence (P41240 2-450 limits assumed): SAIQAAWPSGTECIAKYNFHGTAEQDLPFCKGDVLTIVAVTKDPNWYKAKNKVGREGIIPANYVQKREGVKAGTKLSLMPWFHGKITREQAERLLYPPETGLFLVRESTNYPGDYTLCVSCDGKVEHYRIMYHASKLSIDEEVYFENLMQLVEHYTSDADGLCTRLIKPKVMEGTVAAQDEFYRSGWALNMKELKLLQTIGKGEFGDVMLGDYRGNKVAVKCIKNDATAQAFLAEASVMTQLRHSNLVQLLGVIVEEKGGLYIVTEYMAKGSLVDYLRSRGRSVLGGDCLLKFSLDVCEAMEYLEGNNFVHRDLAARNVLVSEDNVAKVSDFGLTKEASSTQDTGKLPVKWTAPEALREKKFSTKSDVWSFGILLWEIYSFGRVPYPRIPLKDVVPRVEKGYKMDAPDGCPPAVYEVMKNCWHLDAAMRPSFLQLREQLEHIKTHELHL

[8] = target: 5'-AMP-activated protein kinase catalytic subunit alpha-1 (Homo sapiens) (UniProt Q13131); test: Residual activity of AMPK-alpha1 fl at 10 uM by microplate scintillation counting
5'-AMP-activated protein kinase catalytic subunit alpha-1 (Homo sapiens), sequence (Q13131 whole entry, looked up): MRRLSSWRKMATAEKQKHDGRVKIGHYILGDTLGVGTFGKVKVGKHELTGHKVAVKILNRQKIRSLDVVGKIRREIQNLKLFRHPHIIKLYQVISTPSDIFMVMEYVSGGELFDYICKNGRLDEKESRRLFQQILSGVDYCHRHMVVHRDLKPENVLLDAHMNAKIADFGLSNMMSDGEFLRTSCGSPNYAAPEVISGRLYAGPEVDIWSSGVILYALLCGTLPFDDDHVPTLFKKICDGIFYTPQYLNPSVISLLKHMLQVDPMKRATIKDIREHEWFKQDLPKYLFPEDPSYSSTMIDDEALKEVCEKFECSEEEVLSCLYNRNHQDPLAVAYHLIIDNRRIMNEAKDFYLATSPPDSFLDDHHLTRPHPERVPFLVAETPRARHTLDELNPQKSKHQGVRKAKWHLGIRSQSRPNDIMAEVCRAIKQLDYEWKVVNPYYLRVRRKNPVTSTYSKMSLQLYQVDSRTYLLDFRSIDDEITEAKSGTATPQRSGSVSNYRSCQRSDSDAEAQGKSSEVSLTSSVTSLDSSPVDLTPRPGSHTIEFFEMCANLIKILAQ

[9] = target: CDK1/Cyclin E (Homo sapiens) (UniProt P06493+P24864); test: Residual activity of CDK1/Cyclin E at 10 uM by microplate scintillation counting; assay type: protein-complex assay
CDK1/Cyclin E (Homo sapiens), sequence (P06493 whole entry, looked up): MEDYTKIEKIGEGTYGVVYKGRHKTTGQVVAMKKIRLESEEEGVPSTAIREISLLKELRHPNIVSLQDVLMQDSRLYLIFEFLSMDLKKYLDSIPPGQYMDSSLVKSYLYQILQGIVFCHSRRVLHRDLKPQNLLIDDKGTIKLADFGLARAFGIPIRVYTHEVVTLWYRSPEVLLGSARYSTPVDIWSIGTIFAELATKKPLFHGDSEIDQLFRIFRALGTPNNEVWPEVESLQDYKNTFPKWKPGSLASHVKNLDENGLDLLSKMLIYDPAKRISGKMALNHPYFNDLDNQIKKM
CDK1/Cyclin E (Homo sapiens), sequence (P24864 whole entry, looked up): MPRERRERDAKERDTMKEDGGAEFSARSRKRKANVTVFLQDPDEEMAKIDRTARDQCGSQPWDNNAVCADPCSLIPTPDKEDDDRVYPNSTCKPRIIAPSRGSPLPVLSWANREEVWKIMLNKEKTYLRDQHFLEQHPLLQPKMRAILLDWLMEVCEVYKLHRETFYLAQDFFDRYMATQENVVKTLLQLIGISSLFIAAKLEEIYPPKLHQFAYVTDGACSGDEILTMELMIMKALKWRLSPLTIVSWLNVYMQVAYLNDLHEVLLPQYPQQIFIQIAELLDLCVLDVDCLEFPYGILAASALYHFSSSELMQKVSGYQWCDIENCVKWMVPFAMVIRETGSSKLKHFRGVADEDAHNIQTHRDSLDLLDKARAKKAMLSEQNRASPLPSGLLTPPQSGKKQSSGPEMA

[10] = target: Tyrosine-protein kinase receptor UFO (Homo sapiens) (UniProt P30530); test: Residual activity of AXL at 0.1 uM by microplate scintillation counting
[11] = target: Tyrosine-protein kinase Blk (Homo sapiens) (UniProt P51451); test: Residual activity of BLK at 0.1 uM by microplate scintillation counting
Tyrosine-protein kinase Blk (Homo sapiens), sequence (P51451 2-505 limits assumed): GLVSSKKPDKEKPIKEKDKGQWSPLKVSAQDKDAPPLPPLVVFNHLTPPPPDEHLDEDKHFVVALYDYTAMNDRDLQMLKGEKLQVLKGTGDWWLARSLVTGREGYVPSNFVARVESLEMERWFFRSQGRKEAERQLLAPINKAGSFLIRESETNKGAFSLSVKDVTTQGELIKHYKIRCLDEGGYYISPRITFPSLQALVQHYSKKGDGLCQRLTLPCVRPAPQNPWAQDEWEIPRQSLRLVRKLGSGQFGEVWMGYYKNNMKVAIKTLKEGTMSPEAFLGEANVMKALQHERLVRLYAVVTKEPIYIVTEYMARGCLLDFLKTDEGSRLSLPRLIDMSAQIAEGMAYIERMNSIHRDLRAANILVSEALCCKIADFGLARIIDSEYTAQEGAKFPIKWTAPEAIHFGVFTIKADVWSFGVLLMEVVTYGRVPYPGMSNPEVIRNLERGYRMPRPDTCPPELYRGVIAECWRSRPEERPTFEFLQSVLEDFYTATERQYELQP

[12] = target: Ribosomal protein S6 kinase alpha-5 (Homo sapiens) (UniProt O75582); test: Residual activity of RPS6KA5 at 0.1 uM by microplate scintillation counting
Ribosomal protein S6 kinase alpha-5 (Homo sapiens), sequence (O75582 whole entry, looked up): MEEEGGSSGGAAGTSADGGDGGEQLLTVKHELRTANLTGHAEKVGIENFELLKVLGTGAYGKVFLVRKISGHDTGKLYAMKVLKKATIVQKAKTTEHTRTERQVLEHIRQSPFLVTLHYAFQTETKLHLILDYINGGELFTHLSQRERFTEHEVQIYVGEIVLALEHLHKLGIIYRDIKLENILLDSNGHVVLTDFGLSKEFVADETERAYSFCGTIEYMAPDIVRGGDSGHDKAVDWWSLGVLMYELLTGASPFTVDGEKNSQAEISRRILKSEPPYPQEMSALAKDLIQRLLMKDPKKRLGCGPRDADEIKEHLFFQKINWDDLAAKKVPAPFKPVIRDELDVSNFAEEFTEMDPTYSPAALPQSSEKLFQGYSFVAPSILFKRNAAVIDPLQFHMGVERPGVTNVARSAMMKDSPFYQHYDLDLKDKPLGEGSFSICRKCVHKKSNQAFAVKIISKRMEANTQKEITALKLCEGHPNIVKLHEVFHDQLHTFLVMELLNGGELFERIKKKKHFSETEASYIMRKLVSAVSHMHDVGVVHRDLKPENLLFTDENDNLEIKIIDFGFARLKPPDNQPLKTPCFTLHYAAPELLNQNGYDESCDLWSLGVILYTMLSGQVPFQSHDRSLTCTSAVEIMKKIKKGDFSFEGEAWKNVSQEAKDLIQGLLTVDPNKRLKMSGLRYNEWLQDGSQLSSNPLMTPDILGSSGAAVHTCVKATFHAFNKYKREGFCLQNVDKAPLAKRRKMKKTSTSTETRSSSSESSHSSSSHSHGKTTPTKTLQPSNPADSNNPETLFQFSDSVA

Question: How did the residual activity [1] turn out when `COc1cc2c(Oc3ccc(-c4nc5ccccc5s4)cc3)ncnc2cc1OCCCN1CCN(C)CC1` was run?
Answer: The residual activity was 102%.

Question: What about the residual activity [2] of the same compound?
Answer: Its residual activity is 102%.

Question: And the residual activity [3]?
Answer: The residual activity was 85%.

Question: And the residual activity [4]?
Answer: The residual activity was 91%.

Question: What about the residual activity [5] of the same compound?
Answer: Its residual activity is 81%.

Question: What about the residual activity [6] of the same compound?
Answer: Its residual activity is 87%.

Question: And the residual activity [7]?
Answer: The residual activity was 18%.

Question: And the residual activity [8]?
Answer: Its residual activity is 61%.

Question: And the residual activity [9]?
Answer: The residual activity was 108%.

Question: What about the residual activity [10] of the same compound?
Answer: The residual activity was 117%.

Question: What about the residual activity [11] of the same compound?
Answer: The residual activity was 90%.

Question: What about the residual activity [12] of the same compound?
Answer: The residual activity was 89%.

Question: For `COc1cc2c(Oc3ccc(-c4nc5ccccc5s4)cc3F)ncnc2cc1OCCCN1CCN(C)CC1`, which residual activity [1] is on record?
Answer: The residual activity was 92%.

Question: And the residual activity [2]?
Answer: The residual activity was 103%.

Question: And the residual activity [3]?
Answer: The residual activity was 83%.

Question: What about the residual activity [4] of the same compound?
Answer: The residual activity was 97%.

Question: What about the residual activity [5] of the same compound?
Answer: Its residual activity is 99%.

Question: And the residual activity [6]?
Answer: Its residual activity is 91%.

Question: And the residual activity [7]?
Answer: The residual activity was 3%.

Question: And the residual activity [8]?
Answer: The residual activity was 57%.

Question: And the residual activity [9]?
Answer: Its residual activity is 107%.

Question: And the residual activity [10]?
Answer: Its residual activity is 104%.

Question: What about the residual activity [11] of the same compound?
Answer: The residual activity was 89%.

Question: What about the residual activity [12] of the same compound?
Answer: Its residual activity is 86%.

Question: What does the source list for `COc1cc2c(Oc3ccc(-c4nc5ccccc5s4)cc3)ncnc2cc1OCCCN1CCCC1`?
Answer: residual activity [1]: 94%; residual activity [2]: 98%; residual activity [3]: 86%; residual activity [4]: 95%; residual activity [5]: 140%; residual activity [6]: 88%; residual activity [7]: 17%; residual activity [8]: 73%; residual activity [9]: 93%; residual activity [10]: 96%; residual activity [11]: 97%; residual activity [12]: 96%
